The values below come from EP2698384A1, “Detection of synthetic cannabinoids” (priority 2012, dated 2014).

Type in all cases: binding, sheep
Settings in all cases: Cross-reactants at 100 ng/ml; 1000ng/ml; single level of cross reactants

In assay [1] the test system is Antibody to Immunogen III. The protocol:
(§1) The wells of an enhanced binding 96 well polystyrene microtiter plate were coated with IgG fraction of antiserum raised to Immunogen VI, diluted in 10mM Tris, pH8.5 (125µl/well). The appropriate antibody coating dilution was determined using standard ELISA checkerboard techniques. The plate was incubated overnight at 4°C, washed 4 times over 10 minutes with Tris buffered saline containing Tween 20 (TBST) and tapped dry. Standard solutions of RCS-4 were prepared in TBST at 0, 0.3125, 0.625, 1.25, 2.5, 5, 10 and 20ng/ml, and 50µl of each was added to the appropriate wells (see figure 1). 75µl of conjugate (appropriate hapten-HRP) diluted in Tris buffer (pH 7.2) containing EDTA, D-mannitol, sucrose, thimerosal and BSA, was added to each of the wells. The appropriate dilution of conjugate was also determined using standard ELISA checkerboard techniques. The plate was incubated at 25°C for 1 hour. Excess unbound conjugate was removed by washing 6 times over a 10 minute period with TBST. 125µl oftetramethylbenzidine (TMB) substrate solution was added to each well of the plate that was then incubated for 20 minutes in the dark at room temperature. The reaction was terminated by addition of 125µl 0.2M H2SO4 to each well. The absorbance was then measured at 450nm using a microtiter plate reader. The data are inputted to a computer program called 'KC Junior'. It is a 4 parameter fit curve and allow the calculatation of concentrations between the standard runs. This program is used to calculate the IC50s by dividing the 0ng/ml OD value by 2 and obtaining the concentration value from the curve for this OD.
In a similar manner to that described above, the wells of a 96-well microtiter plate were coated with the IgG fraction of the antiserum raised to Immunogens I, II or III. Standard solutions (JWH-250 for Immunogen III) were applied at 0, 0.625, 1.25, 2.5, 5, 10, 20 and 40ng/ml and conjugate was employed as detection reagent.
(§2) The data set our in Tables 3 and 4 are generated using antibodies raised against the indicated Immunogens in a competitive binding assay with the indicated tracers, using the indicated standards: Table 2
(§3) In order to determine the specificity of the competitive ELISAs, standard solutions of a range of structurally similar synthetic cannabinoids and their metabolites were prepared in TBST. Using the calibration curves generated and employing a single level of cross reactants, these were used to determine the cross-reactivity of each immunoassay with these substances. Table 4: Cross reactivity of the competitive ELISAs for synthetic cannabinoids and their metabolites

Assay [2] has as its system Antibody to Immunogen V. As to the method: as §1
In a similar manner to that described above, the wells of a 96-well microtiter plate were coated with the IgG fraction of the antiserum raised to Immunogens IV, V, VII or VIII. Standard solutions (RCS-8 for Immunogen V) were prepared in TBST at 0, 1.25, 2.5, 5, 10, 20, 40 and 80ng/ml and conjugate was employed as detection reagent.
as §2, §3

For assay [3], the system named is Antibody to Immunogen VI. The protocol: as §1, §2, §3

For the molecule `CCCCCCC(C)(C)c1cc(O)c2c(c1)OC(C)(C)[C@H]1CC=C(CO)C[C@H]21` [HU-211 (Dexanabinol), Dexanabinol], the “%B/B0” value in assay [1] was 95.96%; in assay [2], 71.68%; in assay [3], 98.97%.
Turning to `CCCCCCC(C)(C)c1cc(OC)c([C@@H]2C=C(CO)[C@@H]3C[C@H]2C3(C)C)c(OC)c1` [HU-308], the “%B/B0” value in assay [1] amounted to 96.26%; in assay [2], 71.33%; in assay [3] it was 97.34%.
For the molecule `O=C(O)c1c[nH]c2ccccc12` [Indole-3-carboxylic Acid], the “%B/B0” value in assay [1] turned out to be 91.19%; in assay [2], 64.69%; in assay [3] it was 95.41%.
On to `CCCCCn1cc(C(=O)c2ccc3ccccc3c2)c2ccccc21` [JWH 018 2'-naphthyl isomer], for which the entries for the “%B/B0” value in assay [1], in assay [2] and in assay [3] were 76.35%, 88.32% and 44.48%, respectively.
For `CC(C)CCn1cc(C(=O)c2cccc3ccccc23)c2ccccc21` [JWH 018 N-(3-methylbutyl) isomer (JWH-073 3-methylbutyl homologue)], the “%B/B0” value in assay [1] was determined as 82.58%; in assay [2] it was 63.42%; in assay [3], 66.63%.
Regarding `CCCCCn1cc(C(=O)C23CC4CC(CC(C4)C2)C3)c2ccccc21` [JWH 018 adamantyl analog], the “%B/B0” value was determined as 84.69% in assay [1], 86.65% in assay [2] and 93.91% in assay [3].
`CCCCn1cc(C(=O)c2c(C)ccc3ccccc23)c2ccccc21` [JWH 073 2-methylnaphthyl analog]: the “%B/B0” value turned out to be 86.14% in assay [1], 77.45% in assay [2] and 86.98% in assay [3].
Taken in the same sequence, the figures for `CCCCCn1cc(C(=O)c2c(C)ccc3ccccc23)c2ccccc21` [JWH 122 2-methylnaphthyl isomer] were 80.25%, 83.38% and 90.59%.
Taken in the same sequence, the figures for `CCCCCn1cc(C(=O)c2cccc3cc(C)ccc23)c2ccccc21` [JWH 122 6-methylnaphthyl isomer] were 73.75%, 77.08% and 84.77%.
With `CCCCCn1cc(C(=O)c2cccc3ccc(C)cc23)c2ccccc21` [JWH 122 7-methylnaphthyl isomer], the results for the “%B/B0” value in assay [1], in assay [2] and in assay [3] were 71.72%, 78.80% and 86.92%, respectively.
Taken in the same sequence, the figures for `CCCCCn1cc(C(=O)Cc2cccc(Cl)c2)c2ccccc21` [JWH 203 3-chloro isomer (JWH-237)] were 22.69%, 27.22% and 72.53%.
As for `CCCCCn1cc(C(=O)Cc2ccccc2OC)c2cc(O)ccc21` [JWH 250 5-hydroxyindole metabolite], the “%B/B0” value turned out to be 65.83% in assay [1], 37.39% in assay [2] and 91.28% in assay [3].
Regarding `COc1ccccc1CC(=O)c1cn(CCCCCC(=O)O)c2ccccc12` [JWH 250 N-(5-carboxypentyl) metabo lite], the “%B/B0” value in assay [1] is on record as 89.61%; in assay [2] it was 8.60%; in assay [3] it was 85.31%.
Take `COc1ccccc1CC(=O)c1cn(CCCCCO)c2ccccc12` [JWH 250 N-(5-hydroxypentyl) metabo lite]: the entries for the “%B/B0” value in assay [1], in assay [2] and in assay [3] were 48.72%, 6.88% and 78.58%, respectively.
Take `CCCCCn1cc(C(=O)Cc2cccc(C)c2)c2ccccc21` [JWH 251 3-methylphenyl isomer]: the figures for the “%B/B0” value in assay [1], in assay [2] and in assay [3] were 21.39%, 26.65% and 73.53%, respectively.
`CCCCCn1c(C)c(C(=O)c2cccc3ccccc23)c2ccccc21` [JWH-007]: the “%B/B0” value in assay [1] stood at 81.87%; in assay [2], 75.22%; in assay [3], 81.74%.
With `CCCCCC(C)n1c(C)c(C(=O)c2cccc3ccccc23)c2ccccc21` (stereo not drawn) [JWH-011], the “%B/B0” value in assay [1] was 93.19%; in assay [2] it was 83.73%; in assay [3] it was 88.22%.
